Experiments:
Assay in all cases: relative viability (nuclei count vs DMSO), 5 days (fraction); higher = more cells survive
A-427 = system: A-427
Procedure, shortened: (§1)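 Relative viability divides the nuclei count in treated wells by that in vehicle wells. Lung cancer cell lines were seeded in 1536-well plates, dosed by pin tool the next day, and fixed and stained after 5 days in one step with final 0.05% Triton X-100, 1% formaldehyde and 1 ug/ml Hoechst. Dosing was a single drug or a fixed anchor-drug dose plus five library-drug doses (not always all listed) in √10 steps, and values are medians of duplicate plates imaged at 4×.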

COR-L 105 = system: COR-L 105
Procedure, shortened: as §1

ChaGo-K-1 = system: ChaGo-K-1
Procedure, shortened: as §1

EKVX = system: EKVX
Procedure, shortened: as §1

EMC-BAC-2 = system: EMC-BAC-2
Procedure, shortened: as §1

H3255 = system: H3255
Procedure, shortened: as §1

HCC-366 = system: HCC-366
Procedure, shortened: as §1

LK-2 = system: LK-2
Procedure, shortened: as §1

LOU-NH91 = system: LOU-NH91
Procedure, shortened: as §1

NCI-H1666 = system: NCI-H1666
Procedure, shortened: as §1

NCI-H1734 = system: NCI-H1734
Procedure, shortened: as §1

NCI-H1755 = system: NCI-H1755
Procedure, shortened: as §1

NCI-H1975 = system: NCI-H1975
Procedure, shortened: as §1

NCI-H2170 = system: NCI-H2170
Procedure, shortened: as §1

NCI-H23 = system: NCI-H23
Procedure, shortened: as §1

NCI-H441 = system: NCI-H441
Procedure, shortened: as §1

NCI-H520 = system: NCI-H520
Procedure, shortened: as §1

NCI-H596 = system: NCI-H596
Procedure, shortened: as §1

PC-3 [JPC-3] = system: PC-3 [JPC-3]
Procedure, shortened: as §1

SK-MES-1 = system: SK-MES-1
Procedure, shortened: as §1

CC(=O)O[C@@]12CO[C@@H]1C[C@H](O)[C@@]1(C)C(=O)[C@H](O)C3=C(C)[C@@H](OC(=O)[C@H](O)[C@@H](NC(=O)OC(C)(C)C)c4ccccc4)C[C@@](O)([C@@H](OC(=O)c4ccccc4)[C@H]21)C3(C)C [Docetaxel] + CC1(C)CCC(c2ccc(Cl)cc2)=C(CN2CCN(c3ccc(C(=O)NS(=O)(=O)c4ccc(N[C@H](CCN5CCOCC5)CSc5ccccc5)c(S(=O)(=O)C(F)(F)F)c4)cc3)CC2)C1 [Navitoclax] (partner 0.5 µM)
relative viability (A-427; first compound 0.0002 µM): 0.987 | relative viability (A-427; first compound 0.000632 µM): 0.926 | relative viability (A-427; first compound 0.002 µM): 0.641 | relative viability (A-427; first compound 0.006325 µM): 0.26 | relative viability (A-427; first compound 0.02 µM): 0.181 | relative viability (COR-L 105; first compound 0.0002 µM): 0.94 | relative viability (COR-L 105; first compound 0.000632 µM): 0.715 | relative viability (COR-L 105; first compound 0.002 µM): 0.343 | relative viability (COR-L 105; first compound 0.006325 µM): 0.367 | relative viability (COR-L 105; first compound 0.02 µM): 0.26 | relative viability (ChaGo-K-1; first compound 0.0002 µM): 1.02 | relative viability (ChaGo-K-1; first compound 0.000632 µM): 0.597 | relative viability (ChaGo-K-1; first compound 0.002 µM): 0.485 | relative viability (ChaGo-K-1; first compound 0.006325 µM): 0.429 | relative viability (ChaGo-K-1; first compound 0.02 µM): 0.232 | relative viability (EKVX; first compound 0.0002 µM): 0.918 | relative viability (EKVX; first compound 0.000632 µM): 0.847 | relative viability (EKVX; first compound 0.002 µM): 0.37 | relative viability (EKVX; first compound 0.006325 µM): 0.196 | relative viability (EKVX; first compound 0.02 µM): 0.123 | relative viability (EMC-BAC-2; first compound 0.0002 µM): 1.14 | relative viability (EMC-BAC-2; first compound 0.000632 µM): 1.11 | relative viability (EMC-BAC-2; first compound 0.002 µM): 0.735 | relative viability (EMC-BAC-2; first compound 0.006325 µM): 0.272 | relative viability (EMC-BAC-2; first compound 0.02 µM): 0.148 | relative viability (H3255; first compound 0.0002 µM): 0.399 | relative viability (H3255; first compound 0.000632 µM): 0.46 | relative viability (H3255; first compound 0.002 µM): 0.181 | relative viability (H3255; first compound 0.006325 µM): 0.141 | relative viability (H3255; first compound 0.02 µM): 0.102 | relative viability (HCC-366; first compound 0.0002 µM): 1.03 | relative viability (HCC-366; first compound 0.000632 µM): 0.969 | relative viability (HCC-366; first compound 0.002 µM): 0.0411 | relative viability (HCC-366; first compound 0.006325 µM): 0.0211 | relative viability (HCC-366; first compound 0.02 µM): 0.0135 | relative viability (LK-2; first compound 0.0002 µM): 0.805 | relative viability (LK-2; first compound 0.000632 µM): 0.556 | relative viability (LK-2; first compound 0.002 µM): 0.172 | relative viability (LK-2; first compound 0.006325 µM): 0.133 | relative viability (LK-2; first compound 0.02 µM): 0.145 | relative viability (LOU-NH91; first compound 0.0002 µM): 0.784 | relative viability (LOU-NH91; first compound 0.000632 µM): 0.512 | relative viability (LOU-NH91; first compound 0.002 µM): 0.332 | relative viability (LOU-NH91; first compound 0.006325 µM): 0.279 | relative viability (LOU-NH91; first compound 0.02 µM): 0.222 | relative viability (NCI-H1666; first compound 0.0002 µM): 0.646 | relative viability (NCI-H1666; first compound 0.000632 µM): 0.565 | relative viability (NCI-H1666; first compound 0.002 µM): 0.354 | relative viability (NCI-H1666; first compound 0.006325 µM): 0.302 | relative viability (NCI-H1666; first compound 0.02 µM): 0.186 | relative viability (NCI-H1734; first compound 0.0002 µM): 0.697 | relative viability (NCI-H1734; first compound 0.000632 µM): 0.819 | relative viability (NCI-H1734; first compound 0.002 µM): 0.323 | relative viability (NCI-H1734; first compound 0.02 µM): 0.104 | relative viability (NCI-H1755; first compound 0.0002 µM): 0.982 | relative viability (NCI-H1755; first compound 0.000632 µM): 0.98 | relative viability (NCI-H1755; first compound 0.002 µM): 0.401 | relative viability (NCI-H1755; first compound 0.006325 µM): 0.232 | relative viability (NCI-H1755; first compound 0.02 µM): 0.136 | relative viability (NCI-H1975; first compound 0.0002 µM): 1.1 | relative viability (NCI-H1975; first compound 0.000632 µM): 1.11 | relative viability (NCI-H1975; first compound 0.002 µM): 0.276 | relative viability (NCI-H1975; first compound 0.006325 µM): 0.252 | relative viability (NCI-H1975; first compound 0.02 µM): 0.156 | relative viability (NCI-H2170; first compound 0.0002 µM): 0.569 | relative viability (NCI-H2170; first compound 0.000632 µM): 0.49 | relative viability (NCI-H2170; first compound 0.002 µM): 0.237 | relative viability (NCI-H2170; first compound 0.006325 µM): 0.213 | relative viability (NCI-H2170; first compound 0.02 µM): 0.15 | relative viability (NCI-H23; first compound 0.0002 µM): 0.876 | relative viability (NCI-H23; first compound 0.000632 µM): 0.741 | relative viability (NCI-H23; first compound 0.002 µM): 0.514 | relative viability (NCI-H23; first compound 0.006325 µM): 0.242 | relative viability (NCI-H441; first compound 0.0002 µM): 0.486 | relative viability (NCI-H441; first compound 0.000632 µM): 0.275 | relative viability (NCI-H441; first compound 0.002 µM): 0.204 | relative viability (NCI-H441; first compound 0.006325 µM): 0.23 | relative viability (NCI-H441; first compound 0.02 µM): 0.13 | relative viability (NCI-H520; first compound 0.0002 µM): 1.07 | relative viability (NCI-H520; first compound 0.000632 µM): 0.86 | relative viability (NCI-H520; first compound 0.002 µM): 0.283 | relative viability (NCI-H520; first compound 0.006325 µM): 0.16 | relative viability (NCI-H520; first compound 0.02 µM): 0.156 | relative viability (NCI-H596; first compound 0.0002 µM): 0.882 | relative viability (NCI-H596; first compound 0.000632 µM): 0.799 | relative viability (NCI-H596; first compound 0.002 µM): 0.565 | relative viability (NCI-H596; first compound 0.006325 µM): 0.477 | relative viability (NCI-H596; first compound 0.02 µM): 0.208 | relative viability (PC-3 [JPC-3]; first compound 0.0002 µM): 0.82 | relative viability (PC-3 [JPC-3]; first compound 0.000632 µM): 0.721 | relative viability (PC-3 [JPC-3]; first compound 0.002 µM): 0.527 | relative viability (PC-3 [JPC-3]; first compound 0.006325 µM): 0.229 | relative viability (PC-3 [JPC-3]; first compound 0.02 µM): 0.202 | relative viability (SK-MES-1; first compound 0.0002 µM): 1.19 | relative viability (SK-MES-1; first compound 0.000632 µM): 0.692 | relative viability (SK-MES-1; first compound 0.002 µM): 0.251 | relative viability (SK-MES-1; first compound 0.006325 µM): 0.122 | relative viability (SK-MES-1; first compound 0.02 µM): 0.108

From the supplement of paper PMC10307832
